Here are results for 16 compounds from ChEMBL document CHEMBL3046873, “Synthesis of antihyperglycemic, -glucosidase inhibitory, and DPPH free radical scavenging furanochalcones” (Med Chem Res, 2012).

Assay [1] deals with Rattus norvegicus. Briefly: Antihyperglycemic activity in starch-induced post-parandial hyperglycemic Rattus norvegicus Wistar (rat) model assessed as decrease in plasma AUC at 50 mg/kg, po administered via gastric intubation administered 15 min followed by starch challenge measured after 30 to 120 min by glucose-oxidase test. In kind it is functional, organism-based. The arrangement: dose 50 mg/kg.

In assay [2] the target is Lysosomal alpha-glucosidase (Rattus norvegicus) (UniProt Q6P7A9). Briefly: Inhibition of rat intestinal alpha-glucosidase using para-nitrophenyl-alpha-D-glucopyranoside as substrate at 25 ug/ml incubated for 5 min prior to substrate addition measured after 5 min by spectrophotometric analysis.
Sequence of Lysosomal alpha-glucosidase (Rattus norvegicus) (Q6P7A9 whole entry): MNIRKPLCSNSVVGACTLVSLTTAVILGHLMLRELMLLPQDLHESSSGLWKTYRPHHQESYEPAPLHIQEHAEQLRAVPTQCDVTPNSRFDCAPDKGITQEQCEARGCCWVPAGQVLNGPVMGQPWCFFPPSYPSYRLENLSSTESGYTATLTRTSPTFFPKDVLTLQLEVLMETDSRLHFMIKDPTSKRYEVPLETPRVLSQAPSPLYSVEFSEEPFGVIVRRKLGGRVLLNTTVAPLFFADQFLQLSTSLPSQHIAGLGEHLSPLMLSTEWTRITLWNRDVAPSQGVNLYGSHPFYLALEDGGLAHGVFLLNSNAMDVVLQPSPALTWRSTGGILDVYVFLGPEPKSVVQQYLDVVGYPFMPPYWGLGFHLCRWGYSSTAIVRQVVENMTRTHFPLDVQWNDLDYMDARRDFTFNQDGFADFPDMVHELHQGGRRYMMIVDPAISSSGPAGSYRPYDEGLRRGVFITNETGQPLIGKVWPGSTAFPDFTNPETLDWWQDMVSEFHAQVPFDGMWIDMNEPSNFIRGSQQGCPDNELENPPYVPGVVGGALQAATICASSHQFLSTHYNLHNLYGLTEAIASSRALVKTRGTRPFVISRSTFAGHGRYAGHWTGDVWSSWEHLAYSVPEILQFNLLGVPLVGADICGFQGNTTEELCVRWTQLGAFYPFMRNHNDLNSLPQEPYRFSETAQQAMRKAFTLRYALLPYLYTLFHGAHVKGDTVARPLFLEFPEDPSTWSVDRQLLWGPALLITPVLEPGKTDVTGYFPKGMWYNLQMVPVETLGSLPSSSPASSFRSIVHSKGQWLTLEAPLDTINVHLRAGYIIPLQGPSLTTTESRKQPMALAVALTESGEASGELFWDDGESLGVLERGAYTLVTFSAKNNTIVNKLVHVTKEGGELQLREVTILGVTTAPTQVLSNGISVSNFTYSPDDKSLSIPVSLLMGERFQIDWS
Assay [3] deals with Rattus norvegicus. Briefly: Antihyperglycemic activity in starch-induced post-parandial hyperglycemic Rattus norvegicus Wistar (rat) model assessed as decrease in plasma glucose level at 50 mg/kg, po administered via gastric intubation by glucose-oxidase test. In kind it is functional, organism-based. The arrangement: dose 50 mg/kg. The conditions noted are these: TDE = time-dependent effect.

For assay [4], the system named is Radical scavenging activity. Briefly: Antioxidant activity assessed as DPPH free radical scavenging activity at 20 ug/ml after 30 min by spectrophotometric analysis. In kind it is functional.
The subject of assay [5] is Radical scavenging activity. Description: Antioxidant activity assessed as concentration required for 50% DPPH free radical scavenging activity after 30 min by spectrophotometric analysis. The format is functional. In general terms: DPPH is a stable violet radical that fades when it is reduced.
In assay [6] the test system is Rattus norvegicus. Briefly: Antihyperglycemic activity in starch-induced post-parandial hyperglycemic Rattus norvegicus Wistar (rat) model assessed as decrease in plasma glucose level at 10 mg/kg, po administered via gastric intubation by glucose-oxidase test. The format is functional, organism-based. The following applies: TDE = time-dependent effect. Details: dose 10 mg/kg.

The subject of assay [7] is Rattus norvegicus. Briefly: Antihyperglycemic activity in starch-induced post-parandial hyperglycemic Rattus norvegicus Wistar (rat) model assessed as decrease in plasma AUC at 10 mg/kg, po administered via gastric intubation administered 15 min followed by starch challenge measured after 30 to 120 min by glucose-oxidase test. The format is functional, organism-based. The arrangement: dose 10 mg/kg.

Calls of active or inactive are those of the source. The calls are words filed in the database; no cut-off is given here.

What is called inhibition is the drop in the measured response relative to a control, in per cent. Take `COc1ccc(/C=C/C(=O)c2ccc3occc3c2O)cc1OC`: the result in assay [1] was Active. The same compound yielded an inhibition in assay [2] of 89.5%. Besides, in assay [3], the Activity entry was “tde”.
In assay [2], `COc1ccc(/C=C/C(=O)c2cc3ccoc3cc2O)cc1` returned an inhibition of 48.9%.
For the compound `O=C(/C=C/c1ccc(O)c(O)c1)c1ccc2occc2c1O`, the Activity in assay [4] was 67.9%; in assay [5], 29.7 µM. Besides, the inhibition in assay [2] came to 61.5%.
As to `O=C(/C=C/c1ccc(O)cc1)c1ccc2occc2c1O`, the Activity in assay [4] is 75.8%; in assay [5], 17.8 µM. Also, in assay [2], the inhibition is 65.7%.
On to `Cc1c(C)c2c(c(C)c1O)CCC(C)(C(=O)O)O2` (stereo not given), for which the results for the Activity in assay [4] and in assay [5] were 99.5% and 4.8 µM, respectively.
Consider `COc1cc(/C=C/C(=O)c2ccc3occc3c2O)ccc1O`, for which, in assay [4], the Activity was 54.2%. The same compound displayed an inhibition in assay [2] of 45%.
Turning to `COc1ccc(/C=C/C(=O)c2cc3ccoc3cc2O)cc1OC`, in assay [4], the Activity is 8.78%. In assay [2], this compound displayed an inhibition of 89.3%.
With `C[C@H]1O[C@H](O[C@H]2[C@H](O)[C@@H](O)[C@@H](O[C@H]3[C@H](O)[C@@H](O)C(O)O[C@@H]3CO)O[C@@H]2CO)[C@H](O)[C@@H](O)[C@@H]1N[C@H]1C=C(CO)[C@@H](O)[C@H](O)[C@H]1O` (stereo not given in full), the Activity result in assay [6] was “tde”. For the same compound, in assay [7], the outcome was Active.
In the case of `O=C(/C=C/c1ccc(O)cc1)c1cc2ccoc2cc1O`, the Activity in assay [4] was found to be 73.2%; in assay [5], 12 µM. In assay [2], this compound yielded an inhibition of 8.77%.
`COc1ccc(/C=C/C(=O)c2ccc3occc3c2O)cc1`: the inhibition in assay [2] stood at 94.8%.
`COc1cc(OC)c(OC)cc1/C=C/C(=O)c1cc2ccoc2cc1O`: the Activity in assay [4] is 17.1%. In assay [2], this compound registered an inhibition of 68%.
For `COc1ccc(/C=C/C(=O)c2ccc3occc3c2O)c(OC)c1OC` the same measures were 7.3% and 67.3%.
`O=C(/C=C/c1ccc(O)c(O)c1)c1cc2ccoc2cc1O`: the Activity in assay [4] worked out at 69.8%; in assay [5], 26.2 µM. The same compound had an inhibition in assay [2] of 62.7%.
For `O=C(/C=C/c1ccccc1)c1ccc2occc2c1O`, the Activity in assay [4] turned out to be 7.57%. In assay [2], this compound had an inhibition of 20.8%.
As for `COc1cc(/C=C/C(=O)c2cc3ccoc3cc2O)ccc1O`, the Activity in assay [4] turned out to be 42.1%. The compound further showed an inhibition in assay [2] of 52.8%.
For `O=C(/C=C/c1ccccc1)c1cc2ccoc2cc1O` the same measures were 9.91% and 67.6%.
